# Assays:
# Assay in all cases: relative viability (nuclei count vs DMSO), 5 days (fraction); higher = more cells survive
# LXF-289 = tested on: LXF-289
# Summary of the method: (§1)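 Relative viability is defined as nuclei in treated wells over nuclei in vehicle wells. Duplicate plates were run and medians reported. Lung cancer cell lines in 1536-well plates were dosed by pin tool one day after seeding, with one drug or with a fixed anchor-drug dose plus five library-drug doses (not always all listed) in √10 steps, and nuclei were counted after 5 days.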
# ABC-1 = tested on: ABC-1
# Summary of the method: as §1
# NCI-H647 = tested on: NCI-H647
# Summary of the method: as §1
# NCI-H1734 = tested on: NCI-H1734
# Summary of the method: as §1
# NCI-H441 = tested on: NCI-H441
# Summary of the method: as §1
# NCI-H322M = tested on: NCI-H322M
# Summary of the method: as §1
# SK-MES-1 = tested on: SK-MES-1
# Summary of the method: as §1
# H3255 = tested on: H3255
# Summary of the method: as §1
# ChaGo-K-1 = tested on: ChaGo-K-1
# Summary of the method: as §1
# NCI-H2009 = tested on: NCI-H2009
# Summary of the method: as §1
# NCI-H2170 = tested on: NCI-H2170
# Summary of the method: as §1
# NCI-H596 = tested on: NCI-H596
# Summary of the method: as §1
smiles,measurement,setting,value
O=C(O)CCCCC(CCSCc1ccccc1)SCc1ccccc1 (configuration not stated) [CPI-613] + CCNC(=O)c1noc(-c2cc(C(C)C)c(O)cc2O)c1-c1ccc(CN2CCOCC2)cc1 [Luminespib] (partner 0.01 µM),relative viability,LXF-289; first compound 15.81 µM,0.535
same,relative viability,LXF-289; first compound 50 µM,0.657
same,relative viability,LXF-289; first compound 158.11 µM,0.206
same,relative viability,LXF-289; first compound 500 µM,0.0484
same,relative viability,ABC-1; first compound 5 µM,0.629
same,relative viability,ABC-1; first compound 50 µM,0.776
same,relative viability,ABC-1; first compound 158.11 µM,0.185
same,relative viability,ABC-1; first compound 500 µM,0.183
same,relative viability,NCI-H647; first compound 5 µM,0.133
same,relative viability,NCI-H647; first compound 15.81 µM,0.152
same,relative viability,NCI-H647; first compound 50 µM,0.113
same,relative viability,NCI-H647; first compound 158.11 µM,0.144
same,relative viability,NCI-H647; first compound 500 µM,0.119
same,relative viability,NCI-H1734; first compound 5 µM,0.197
same,relative viability,NCI-H1734; first compound 15.81 µM,0.194
same,relative viability,NCI-H1734; first compound 50 µM,0.164
same,relative viability,NCI-H1734; first compound 158.11 µM,0.165
same,relative viability,NCI-H1734; first compound 500 µM,0.107
same,relative viability,NCI-H441; first compound 5 µM,0.36
same,relative viability,NCI-H441; first compound 15.81 µM,0.38
same,relative viability,NCI-H441; first compound 50 µM,0.289
same,relative viability,NCI-H441; first compound 158.11 µM,0.124
same,relative viability,NCI-H441; first compound 500 µM,0.0495
same,relative viability,NCI-H322M; first compound 5 µM,0.777
same,relative viability,NCI-H322M; first compound 15.81 µM,0.781
same,relative viability,NCI-H322M; first compound 50 µM,0.826
same,relative viability,NCI-H322M; first compound 158.11 µM,0.53
same,relative viability,NCI-H322M; first compound 500 µM,0.0612
same,relative viability,SK-MES-1; first compound 5 µM,0.772
same,relative viability,SK-MES-1; first compound 15.81 µM,0.659
same,relative viability,SK-MES-1; first compound 50 µM,0.666
same,relative viability,SK-MES-1; first compound 158.11 µM,0.163
same,relative viability,SK-MES-1; first compound 500 µM,0.0794
same,relative viability,H3255; first compound 5 µM,0.822
same,relative viability,H3255; first compound 15.81 µM,0.802
same,relative viability,H3255; first compound 50 µM,0.879
same,relative viability,H3255; first compound 500 µM,0.878
same,relative viability,ChaGo-K-1; first compound 5 µM,0.533
same,relative viability,ChaGo-K-1; first compound 15.81 µM,0.61
same,relative viability,ChaGo-K-1; first compound 50 µM,0.596
same,relative viability,ChaGo-K-1; first compound 158.11 µM,0.204
same,relative viability,ChaGo-K-1; first compound 500 µM,0.11
same,relative viability,NCI-H2009; first compound 5 µM,1.06
same,relative viability,NCI-H2009; first compound 15.81 µM,0.954
same,relative viability,NCI-H2009; first compound 50 µM,0.936
same,relative viability,NCI-H2009; first compound 158.11 µM,0.179
same,relative viability,NCI-H2009; first compound 500 µM,0.012
same,relative viability,NCI-H2170; first compound 5 µM,0.754
same,relative viability,NCI-H2170; first compound 15.81 µM,0.573
same,relative viability,NCI-H2170; first compound 50 µM,0.524
same,relative viability,NCI-H2170; first compound 158.11 µM,0.196
same,relative viability,NCI-H2170; first compound 500 µM,0.0909
same,relative viability,NCI-H596; first compound 5 µM,0.954
same,relative viability,NCI-H596; first compound 15.81 µM,0.955
same,relative viability,NCI-H596; first compound 50 µM,1.12
same,relative viability,NCI-H596; first compound 158.11 µM,0.168
same,relative viability,NCI-H596; first compound 500 µM,0.0176
